Measured values: patent US9884032B2, “Esters of short chains fatty acids for use in the treatment of immunogenic disorders” (priority 2012, dated 2018)
Values joined by “and” are separate entries in the source; they are usually repeats but may differ in a detail not shown here. Identical values can stand only once. “Also recorded” adds a separate entry of the source. Like-named read-outs stand apart in the source and are kept apart here.

How the values were obtained:
Format in all cases: in vivo, BALB/c mice
[1] = system: Influenza virus strain PR8; assay: Propionate intranasal efficacy study, influenza: lung viral load by PCR (Example 1); conditions: 100 mg/kg intranasally on days -3, -1, 0; day 5 post infection; compared to saline
Method: On day 0 all mice were infected with Influenza virus strain PR8. On day 5 post infection, mice were sacrificed, lungs isolated and viral load determined by PCR.
Female BALB/c mice were purchased from Charles River Laboratories at 8 weeks of age. […] On day 0 mice were infected with 100 PFU of Influenza strain PR8 in 30 μl of PBS solution. On day 5 post infection, mice were sacrificed and lungs were removed and placed in Tri reagent solution. Total RNA was purified from cells obtained from whole lung tissue using Tri reagent. Real time PCR was carried out according to manufacturers instructions using the quantifast SYBR green RT-PCR kit (Qiagen). The following primers Influenza matrix protein primers were used: forward 5′-[…]-3′, reverse 5′-[…]-3′. B-actin primers forward 5′-[…]-3′, reverse 5′-[…]-3′ as previously described van Elden, L. J., M. Nijhuis, P. Schipper, R. Schuurman, A. M. van Loon. 2001. Simultaneous detection of influenza viruses A and B using real-time quantitative PCR. J. Clin. Microbiol. 39: 196-200.

[2] = system: metapneumonia virus A1 6621 (MPV); conditions: 100 mg/kg intranasally day -1 and 0; day 5 post infection
airway eosinophilia = assay: Propionate intranasal efficacy study, HDM asthma: BAL differential cell counts (Example 3); conditions: 100 mg/kg intranasally; all treatment regimes (pretreatment; pretreatment and priming; pretreatment, priming and challenge); day 14
Method: On days 0, 2, 4, 7, 8 and 11 mice were exposed to 15 ug of house dust mite extract (Greer) intranasally. On day 14, all mice were sacrificed and bronchoalveolar lavage (BAL) was performed with sterile PBS. The total number of macrophages (FIG. 3B), eosinophils (FIG. 3A), lymphocytes (FIG. 3C) and neutrophils (FIG. 3D) was determined by total and differential cell counts using standard morphological and cytochemical techniques.
BAL was performed by flushing the airways three times with 1 ml PBS. Total BAL cells were counted using a Coulter Counter (IG Instruments) and spun onto glass slides using a Cytospin 2 (Shandon Southern Products, Ltd.). Cells were then stained with Diff Quick staining set (Siemens-Dade Behring). Percentages of eosinophils, macrophages, lymphocytes and neutrophils were determined microscopically using standard morphological and cytochemical criteria.
Female BALB/c mice were purchased from Charles River Laboratories at 8 weeks of age. […] On days 0, 2, 4, 7, 8 and 11 mice were exposed to 15 μg of house dust mite extract (Greer) per nasal. On day 14, all mice were sacrificed and bronchoalveolar lavage (BAL) was performed with sterile PBS. The total number of macrophages, eosinophils, lymphocytes and neutrophils was determined by total and differential cell counts using standard morphological and cytochemical techniques. […]

[3] = system: Influenza A strain HK/PR8; conditions: for delta Ct / flu/β-actin: lungs day 5, individual mice; for flu/β-actin: Experiment 3

CCC(=O)[O-].[Na+] [sodium propionate] was tested. Which “viral load in the lungs” value [1] did it give?
The value was “markedly lower viral load”.

And the “protection against MPV infection” value [2]?
The value was “exhibits efficacy in the protection against MPV infection”.

What about the “airway eosinophilia (BAL eosinophils)” value (airway eosinophilia) of the same molecule?
The value was “statistically significant reductions”.

What about the “Flu titer at 1 mg/kg compared with the other doses” value ([3]; Experiment 1, doses 100, 10, 1 mg/kg i.n.) of the same molecule?
The value was “lowest Flu titers”.

And the “delta Ct” value ([3]; Experiment 2, 0.01 mg/kg i.n. day 0, listed as NA Propionate, 0.01 mg/kg)?
Its value is 0.05776 and 0.1427 and 0.4687 and 0.01899 and 0.2875.

And the “delta Ct” value ([3]; Experiment 2, 0.1 mg/kg i.n. day 0, listed as NA Propionate, 0.1 mg/kg)?
The value was 0.3178 and 0.08239 and 0.2101 and 0.01484 and 0.2815.

What about the “delta Ct” value ([3]; Experiment 2, 1 mg/kg i.n. day 0, listed as NA Propionate, 1 mg/kg) of the same molecule?
Its value is 0.01819 and 0.02787 and 0.08699 and 0.009033 and 0.07967.

What about the “delta Ct” value ([3]; Experiment 2, 10 mg/kg i.n. day 0, listed as Na Propionate, 10 mg/kg) of the same molecule?
Its value is 0.1146 and 0.03546 and 0.05123 and 0.1345.

What about the “delta Ct” value ([3]; Experiment 2, 100 mg/kg i.n. day 0, listed as Na Propionate, 100 mg/kg) of the same molecule?
Its value is 0.02338 and 0.01681 and 0.2248 and 0.2282.

And the “efficacy against influenza infection, dose titration” value ([3]; Experiment 2, dose of 0.1 mg/kg or less i.n.)?
The value was “lack of efficacy”.

And the “Flu titer / efficacy at 1 mg/kg compared with the other doses” value ([3]; Experiment 2, doses 100 to 0.01 mg/kg i.n.)?
The value was “highest efficacy; also recorded: lowest Flu titer”.

And the “efficacy against influenza infection, dose titration” value ([3]; Experiment 2, from 100 mg/kg to 1 mg/kg i.n.)?
The value was “trend towards efficacy”.

What about the flu/β-actin ([3]; 100 mg/kg i.n. Day 0, listed as Na Propionate, 100 mg/kg) of the same molecule?
Its flu/β-actin is 0.154 and 0.244 and 0.334 and 0.303.

What about the flu/β-actin ([3]; 100 mg/kg i.n. Day +1, listed as Na Propionate, 100 mg/kg) of the same molecule?
The flu/β-actin was 0.176 and 0.277 and 0.312 and 0.217.

And the “optimal dose, intranasal” value ([3]; mouse, in vivo)?
Its value is 1 mg/kg.
